From PubChem BioAssay AID489041 (Sanford-Burnham Center for Chemical Genomics, 2010)
The source made the active and inactive calls. How the calls were made is not given here.

Test system: HEK-293T NF-kB luciferase reporter counterscreen, luminescence
Test: NF-kB reporter inhibition in HEK-293T, dose response, counter-screen for T-cell antigen receptor NF-kB inhibitors, HEK-293T cells, luminescence (AID 489041)

| Compound | IC50 |
| --- | --- |
| CCOC(=O)c1ccccc1NC(=O)Cn1c(-c2nonc2N)nc2ccccc21 | 0.47 µM |
| CC1=Nc2ccccc2/C1=C\c1sc(Nc2ccc(C)cc2)nc1O | 3.6 µM |
| CCOc1ccc2c(c1)sc(N)[n+]2Cc1cc(C)cc2cccnc12 | 7.7 µM |
| Cc1ccnc2c1ccc1c(C)ccnc12 | > 80 µM (inactive) |
| COc1ccc(-c2ccc3oc(-c4ccc(OC)cc4)c(C#CCO)c3c2)cc1 | 14.2 µM |
| CCCCCCCCCCn1ccc(=N)cc1 | 0.61 µM |
| Cc1ccc(C(=O)Nc2cccc(C(=O)O)c2)cc1 | 4.1 µM |
| O=[N+]([O-])c1ccc(Sc2ccc(Cl)c(Cl)c2)nc1 | 64 µM (inactive) |
| CCCC1=Nc2cc(C(=O)NCCCOCC)ccc2Sc2ccccc21 | 0.97 µM |
| COc1ccc(-c2csc(NC(=O)C3CCN(c4ncnc5sc(C)c(C)c45)CC3)n2)cc1OC | 13.1 µM |
| O=c1oc2ccccc2cc1-c1cn(-c2ccccc2)c(=S)[nH]1 | 4.59 µM |
| COc1cc(C(=O)OCCc2cc3ccccc3c(=O)o2)cc(OC)c1OC | 14.9 µM |
| Cc1ccc2nc(C)c(CN3CCN(c4ccc([N+](=O)[O-])cc4Cl)CC3)n2c1 | 6.8 µM |
| CCOc1ccc(-c2[nH]ncc2-c2ccc(OC)c(OC)c2)c(O)c1 | 10.4 µM |
| O=C(Nc1ccc(S(=O)(=O)N2CCN(Cc3ccccc3)CC2)cc1)c1cnccn1 | 1.51 µM |
| CCn1cc(C(=O)NC2CCCc3c2cnn3-c2cccc(C)c2C)cn1 (configuration not stated) | 14.7 µM |
| Cc1cccc(N2CCN(C(=O)c3ccc4[nH]c(C)c(C)c4c3)CC2)c1C | 19.2 µM |
| Cc1ccc(O)c(NC(=O)c2cc(-c3ccccc3)on2)c1 | > 80 µM (inactive) |
| O=[N+]([O-])c1ccc(-c2nc(C(Cl)Cl)c3ccccc3n2)cc1 | 54.5 µM (inactive) |
| O=S(=O)(c1ccc2c(c1)OCCO2)N1CCN(c2ncnc3sccc23)CC1 | 2.44 µM |
| O=C(N/N=C(\c1ccccc1)c1cccnc1)c1cccc(F)c1 | > 80 µM (inactive) |
| CCCc1cc(C(=O)N/N=C/c2ccc(CC)s2)c2ccccc2n1 | 2.47 µM |
| CCCC(=O)NC(c1ccc(C)cc1)c1ccc2cccnc2c1O (configuration not stated) | 0.43 µM |
| O=C(c1ccccc1)c1cc([N+](=O)[O-])ccc1N1CCOCC1 | 17.1 µM |
| CC1CCCN(c2ncnc3c2cnn3-c2ccc(Cl)cc2)C1 (configuration not stated) | 8.88 µM |
| CC(=O)N1c2ccc(S(=O)(=O)N3CCC(C(=O)Nc4cccc(C)n4)CC3)cc2CC1C (configuration not stated) | 5.57 µM |

| Compound | IC50 |
| --- | --- |
| COc1ccc(C(=O)N(C)Cc2cnn(Cc3ccccc3)c2)cc1S(=O)(=O)N1CCOCC1 | 22.9 µM (inactive) |
| COc1cccc(-c2cc(C(=O)Nc3cc(C)n(Cc4ccc(Cl)cc4)n3)no2)c1 | 4.24 µM |
| Cc1ccc(N/C(N)=N/c2nc(CSc3nnc(C)s3)cc(=O)[nH]2)c(C)c1 | 4.17 µM |
| COc1cc2nc(CN3CC=C(c4ccccc4)CC3)[nH]c(=O)c2cc1OC | 2.5 µM |
| COC(=O)c1[nH]c2c(c1C)C(=O)CC(c1cccs1)C2 (configuration not stated) | 1.92 µM |
| COc1ccc(C2=NOC(C(=O)NCc3cccs3)C2)cc1OC (configuration not stated) | 35.2 µM (inactive) |
| COc1ccc(OC)c(Nc2cc(-c3ccccc3)nc(N)n2)c1 | 3.41 µM |
| COc1cc(-c2noc(C)c2-c2ccc(N(C)C)nc2)cc(OC)c1OC | 1.94 µM |
| COC(=O)[C@]12OC[C@]34C([C@@H](O)[C@@H]1O)[C@]1(C)CC(=O)C(O)=C(C)[C@@H]1C[C@H]3OC(=O)[C@H](O)[C@@H]24 (some centres not stated) | 0.548 µM |
| CCCCCn1c2c(c(=N)c3ccccc31)CCC2 | 1.75 µM |
| CC1C/C(=C/c2ccncc2)C(=O)/C(=C/c2ccncc2)C1 (configuration not stated) | 5.7 µM |
| C=C1C(O)[C@@H]2O[C@]3(CC[C@H](/C=C/C(C)[C@@H]4CC(C)=CC5(O[C@H](C[C@@](C)(O)CO)CCC5O)O4)O3)CC[C@H]2O[C@@H]1C(O)CC(C)[C@H]1OC2(CCCCO2)CCC1C (some centres not stated) | < 0.16 µM |
| CCC1CCCCN1C(=O)c1cc(COc2ccc3ncccc3c2)on1 (configuration not stated) | 2.44 µM |
| Cn1nc([N+](=O)[O-])nc1Sc1nnc(-c2ccccc2)o1 | 37.5 µM (inactive) |
| COc1ccc(Nc2nc3cc(C)ccc3cc2C#N)c(OC)c1 | > 80 µM (inactive) |
| CC(C)(C)c1csc(Sc2ccc([N+](=O)[O-])cn2)n1 | 36.1 µM (inactive) |
| COC(=O)c1ccc(C)c(NS(=O)(=O)c2ccc3c(c2)OCCO3)c1 | 20.1 µM (inactive) |
| COc1ccc(S(=O)(=O)N2N=C(C)Oc3ccccc3C2=O)cc1 | 29.9 µM (inactive) |
| Cc1ccc2c(c1)Oc1ccc(NC(=O)CCl)cc1C(=O)N2 | 2.71 µM |
| CC(C)(C)c1cc(C=C(C#N)C#N)cc(C(C)(C)C)c1O | 13.1 µM |
| Cc1ccc(/C=N/NC(=O)c2c(C)nc3ccc(Br)cn23)cc1 | > 80 µM (inactive) |
| Cn1nc(-c2ccccn2)nc2c(=O)n(C)c(=O)nc1-2 | 5.68 µM |
| CCN(c1ccccc1)S(=O)(=O)c1ccc(C(=O)NC2CCN(Cc3ccccc3)CC2)cc1 | 3.14 µM |
| Clc1cccc(Cl)c1OCCOCCNCc1ccccc1 | 68.4 µM (inactive) |
| COc1ccc(C(NC(=O)C(C)C)c2ccc3cccnc3c2O)cc1 (configuration not stated) | > 80 µM (inactive) |
| COc1ccc(C2=Nn3c(nnc3-c3ccccc3OC)SC2)cc1OC1CCCC1 | 3.68 µM |

| Compound | IC50 |
| --- | --- |
| COc1cc(/C=C/C(=O)c2ccc([N+](=O)[O-])o2)ccc1O | 7.49 µM |
| CCc1ccc2nc(SCC(=O)Nc3ccccc3N3CCOCC3)c(C#N)cc2c1 | > 80 µM (inactive) |
| COc1ccccc1N1CCN(C(=O)c2ccc(-c3ccc(Cl)cc3)o2)CC1 | 10.1 µM |
| COc1ccc(S(=O)(=O)Nc2cccc(-c3ccc4nncn4n3)c2)cc1F | 49.2 µM (inactive) |
| COc1cc(Nc2ccc(C)cc2)c([N+](=O)[O-])nc1[N+](=O)[O-] | 19.9 µM |
| COc1ccc(S(=O)(=O)/N=C2\C=C(Nc3ccc(O)cc3)C(=O)c3ccccc32)cc1 | 1.03 µM |
| Cc1ccc(S(=O)(=O)Nc2ccccc2-c2ccccc2)cc1 | 8.86 µM |
| COc1ccc(/C=N/NC(=O)c2[nH]c3ccc(Br)cc3c2-c2ccccc2)cc1 | 21.1 µM (inactive) |
| CCn1c2ccccc2c2cc(NC(=O)c3cc(OC)c(OC)c(OC)c3)ccc21 | 3.97 µM |
| Cc1ccc(/C=C/c2ccc(N(C)C)cc2)[n+](C)c1 | 2.7 µM |
| CCCCc1ccc(NC(=O)c2ccc(N(C)S(C)(=O)=O)cc2)cc1 | > 80 µM (inactive) |
| O=C(Nc1ccc([N+](=O)[O-])cc1)Nc1ccon1 | > 80 µM (inactive) |
| Cc1cc(-c2ccc(C(C)C)c(S(=O)(=O)N3CCN(c4ccccc4)CC3)c2)on1 | 22 µM (inactive) |
| COc1cc(/C=C/c2ccc3cccc(O)c3n2)cc(OC)c1OC | > 80 µM (inactive) |
| O=C(Nc1ccc(CSc2ccccc2)cc1)c1ccc(CN2CCOCC2)cc1 | 0.34 µM |
| CCC(C)C(=O)N[C@@H](c1ccccc1)[C@@H](O)C(=O)O[C@H]1C[C@@]2(O)[C@@H](OC(=O)c3ccccc3)C3[C@](C)(C(=O)[C@H](OC(C)=O)C(=C1C)C2(C)C)[C@@H](O)C[C@H]1OC[C@@]31OC(C)=O (some centres not stated) | > 80 µM (inactive) |
| Cc1cc(C)cc(NC(=O)c2ccc([N+](=O)[O-])o2)c1 | 31.5 µM (inactive) |
| CN(Cc1ccccc1)C1=CC(=[N+]2CCCC2)CC(C)(C)C1 | 1.61 µM |
| CCCC(=O)Nc1nc2ccc(NC(=O)c3c(F)c(F)c(OC)c(F)c3F)cc2s1 | > 80 µM (inactive) |
| COC(=O)c1[nH]c2c(c1C)C(=O)CC(c1cccc(OC)c1)C2 (configuration not stated) | 2.58 µM |
| CCc1c(C)nc2ncnn2c1NCCc1ccc(OC)cc1 | 3.03 µM |
| CCCN1C=CC(=C2C(=O)c3ccccc3C2=O)C=C1 | 1.1 µM |
| CCCCC(=O)NC(c1ccc(N(CC)CC)cc1)c1ccc2cccnc2c1O (configuration not stated) | > 80 µM (inactive) |
| c1ccc(-c2cccc(-c3ccccn3)n2)nc1 | > 80 µM (inactive) |
| COc1ccc2c(c1)/C(=C/c1cnc[nH]1)C(=O)N2 | 0.7 µM |
| Cc1nn(C)c(C)c1CN(Cc1nc(CCC(C)C)no1)C(C)C | 11 µM |

| Compound | IC50 |
| --- | --- |
| CCOc1ccc(S(=O)(=O)NCc2ccccn2)cc1NC(=O)c1ccccc1F | > 80 µM (inactive) |
| C[C@]12CC[C@H](O)C[C@H]1CC[C@@H]1[C@@H]2C[C@@H](O)[C@]2(C)[C@@H](C3=CC(=O)OC3)CC[C@]12O | 0.58 µM |
| O=C(c1ccc(CS(=O)c2ccccc2Cl)o1)N1CCN(c2ccccn2)CC1 (configuration not stated) | 18.8 µM |
| COc1ccc(OC)c(COC(=O)c2cc([N+](=O)[O-])ccc2N2CCOCC2)c1 | 52.4 µM (inactive) |
| Cc1c(C(=O)N/N=C/c2ccc(Cl)cc2)[nH]c2ccc(Cl)cc12 | 1.95 µM |
| CCCCCCCCCCCCCCCC[n+]1ccc(C(N)=O)cc1 | 46.7 µM (inactive) |
| CC(=O)O[C@@]12CO[C@@H]1C[C@@H](O)[C@@]1(C)C(=O)[C@H](O)C3=C(C)[C@@H](OC(=O)[C@H](O)[C@@H](NC(=O)c4ccccc4)c4ccccc4)C[C@@](O)([C@@H](OC(=O)c4ccccc4)C12)C3(C)C (some centres not stated) | > 80 µM (inactive) |
| C(=N\Nc1nc2ccccc2s1)/c1ccccn1 | 1.45 µM |
| O=S1(=O)C=C(Sc2nc3cc(Cl)ccc3o2)c2ccccc21 | 20.8 µM (inactive) |
| COc1ccccc1N1CCN(C(=O)C2c3ccccc3Oc3ccccc32)CC1 | 14.2 µM |
| Cc1[nH]n(-c2ccccc2)c(=O)c1/C=N/Nc1nncc(-c2ccccc2)n1 | 0.2 µM |
| O=C(Nc1ccn(Cc2ccccc2F)n1)c1ccc(COc2ccc(Br)cc2)cc1 | 1.55 µM |
| COc1ccc(CCNc2cc(N3CCN(C(=O)c4ccccc4F)CC3)ccc2[N+](=O)[O-])cc1OC | 0.68 µM |
| CC1=NNC(=O)/C1=C\c1cn(-c2ccccc2)nc1-c1ccc(Cl)cc1 | 7.76 µM |
| C/C(=N\NC(=O)c1ccc(Cl)c(Cl)c1)c1ccccn1 | > 80 µM (inactive) |
| COC(=O)c1ccccc1NC(=O)Cn1c(-c2nonc2N)nc2ccccc21 | 3.77 µM |
| Cc1oc2c(c1C(=O)NCc1cccnc1)C(=O)c1ccccc1C2=O | 1.48 µM |
| C=CCn1c(C)cc(C2=NNC(=NCC)SC2)c1C | 1.43 µM |
| CC(C)Nc1ccc(C(CC(N)=O)NC(=O)c2ccc(Br)cc2)cc1[N+](=O)[O-] (configuration not stated) | > 80 µM (inactive) |
| COc1cc(/C=C/[N+](=O)[O-])ccc1OCc1cccc(C(=O)O)c1 | 10.5 µM |
| CCN(CC)c1ccc(/C=C/c2ccc3ccc(OC)cc3[n+]2CC)cc1 | 0.72 µM |
| CCOc1ccccc1C1CC(=O)Nc2cc3c(cc21)OCCO3 (configuration not stated) | 4.19 µM |
| COC(=O)c1ccccc1NC(=O)CSc1nc(-c2ccco2)cc(C(F)(F)F)n1 | 7.95 µM |
| O=C(Nc1ccncc1)C1CCCN(S(=O)(=O)c2cccc3cccnc23)C1 (configuration not stated) | 35.1 µM (inactive) |
